Laboratory results: US10787413B2, “Derivatives of curcuminoids and use thereof as an anticancer agent” (CHINA MEDICAL UNIVERSITY, priority 2016, dated 2020)

Test system: MDA-MB-231 cells
Assay: cDNA microarray
Type: cell-based, human
Method: The cells were incubated with or without 21a. After exposure, cell pellets were collected, and the total RNA from each treatment was purified using the Qiagen RNeasy Mini Kit (Qiagen, Valencia, Calif., USA). The RNA purity was determined to check the quality at 260/280 nm using a NanoDrop 1000 Spectrophotometer (Thermo Fisher Scientific, Wilmington, Del., USA). mRNA was amplified and labeled using the Gene-Chip WT Sense Target Labeling and Control Reagents kit (Affymetrix, Santa Clara, Calif., USA) for expression analysis. The synthesized cDNA was labeled with fluorescence and then hybridized for 17 h using AffymetrixGeneChip Human Gene 1.0 ST array (Affymetrix) to determine microarray hybridization following the manufacturer's protocols. The arrays were subsequently washed using Fluidics Station 450 (Affymetrix), stained with streptavidin-phycoerythrin (Gene-Chip Hybridization, Wash, and Stain kit, Affymetrix), and scanned on a GeneChip Scanner 3000 (Affymetrix). The localized concentrations of fluorescent molecules were quantitated and analyzed using Expression Console Software (Affymetrix) with default RMA parameters as previously described (Chang et al. 2012; Liu et al. 2013). […]

Structure (SMILES): COc1cc(/C=C/C(=O)/C=C(O)/C=C/c2ccc(OC(=O)C(C)(CO)CO)c(OC)c2)ccc1OC(=O)C(C)(CO)CO [Compound 21a, ((1E,3Z,6E)-3-Hydroxy-5-oxohepta-1,3,6-triene-1,7-diyl)bis(2-methoxy-4,1-phenylene) bis(3-hydroxy-2-(hydroxymethyl)-2-methylpropenoate)]
- log2 (Ratio) GADD45B (mRNA, MDA-MB-231 cells, 24-h treatment, ID PH_hs_0027209): 2.665
- log2 (Ratio) FAM20C (mRNA, MDA-MB-231 cells, 24-h treatment, ID PH_hs_0027843): −2.724
- log2 (Ratio) LRRC45 (mRNA, MDA-MB-231 cells, 24-h treatment, ID PH_hs_0027863): −2.718
- log2 (Ratio) ABL2 (mRNA, MDA-MB-231 cells, 24-h treatment, ID PH_hs_0027902): 4.287
- log2 (Ratio) CENPI (mRNA, MDA-MB-231 cells, 24-h treatment, ID PH_hs_0028200): −2.537
- log2 (Ratio) CCDC85B (mRNA, MDA-MB-231 cells, 24-h treatment, ID PH_hs_0028915): −2.622
- log2 (Ratio) TCF21 (mRNA, MDA-MB-231 cells, 24-h treatment, ID PH_hs_0028987): 2.769
- log2 (Ratio) AKR1C1 (mRNA, MDA-MB-231 cells, 24-h treatment, ID PH_hs_0029660): 2.695
- log2 (Ratio) FANCF (mRNA, MDA-MB-231 cells, 24-h treatment, ID PH_hs_0030800): −2.553
- log2 (Ratio) NFKBIB (mRNA, MDA-MB-231 cells, 24-h treatment, ID PH_hs_0030976): 2.516
- log2 (Ratio) VIMP (mRNA, MDA-MB-231 cells, 24-h treatment, ID PH_hs_0031143): 3.213
- log2 (Ratio) GNG2 (mRNA, MDA-MB-231 cells, 24-h treatment, ID PH_hs_0031540): −2.661
- log2 (Ratio) CCL26 (mRNA, MDA-MB-231 cells, 24-h treatment, ID PH_hs_0031719): 4.147
- log2 (Ratio) SIK1 (mRNA, MDA-MB-231 cells, 24-h treatment, ID PH_hs_0033027): 2.548
- log2 (Ratio) DDIT3 (mRNA, MDA-MB-231 cells, 24-h treatment, ID PH_hs_0033101): 3.556
- log2 (Ratio) OMA1 (mRNA, MDA-MB-231 cells, 24-h treatment, ID PH_hs_0035337): −2.514
- log2 (Ratio) SAT1 (mRNA, MDA-MB-231 cells, 24-h treatment, ID PH_hs_0035404): 3.764
- log2 (Ratio) AKR1C3|AKR1C1 (mRNA, MDA-MB-231 cells, 24-h treatment, ID PH_hs_0035466): 2.962
- log2 (Ratio) ETV1 (mRNA, MDA-MB-231 cells, 24-h treatment, ID PH_hs_0035609): −2.788
- log2 (Ratio) RC3H1 (mRNA, MDA-MB-231 cells, 24-h treatment, ID PH_hs_0035614): 3.063
- log2 (Ratio) GDF15 (mRNA, MDA-MB-231 cells, 24-h treatment, ID PH_hs_0035765): 3.427
- log2 (Ratio) PIF1 (mRNA, MDA-MB-231 cells, 24-h treatment, ID PH_hs_0036878): −2.714
- log2 (Ratio) MALAT1 (mRNA, MDA-MB-231 cells, 24-h treatment, ID PH_hs_0037242): 2.683
- log2 (Ratio) MALAT1 (mRNA, MDA-MB-231 cells, 24-h treatment, ID PH_hs_0037472): 3.48
- log2 (Ratio) LOC100134259 (mRNA, MDA-MB-231 cells, 24-h treatment, ID PH_hs_0038982): −2.503
- log2 (Ratio) MXD3 (mRNA, MDA-MB-231 cells, 24-h treatment, ID PH_hs_0040619): −2.891
- log2 (Ratio) DUSP5 (mRNA, MDA-MB-231 cells, 24-h treatment, ID PH_hs_0042225): 2.541
- log2 (Ratio) MT4 (mRNA, MDA-MB-231 cells, 24-h treatment, ID PH_hs_0042334): 3.931
- log2 (Ratio) DNAJB1 (mRNA, MDA-MB-231 cells, 24-h treatment, ID PH_hs_0042409): 2.767
- log2 (Ratio) HMGCS1 (mRNA, MDA-MB-231 cells, 24-h treatment, ID PH_hs_0043719): 2.895
- log2 (Ratio) CLK1 (mRNA, MDA-MB-231 cells, 24-h treatment, ID PH_hs_0044272): 2.829
- log2 (Ratio) HSPA1A (mRNA, MDA-MB-231 cells, 24-h treatment, ID PH_hs_0044921): 2.535
- log2 (Ratio) EID3 (mRNA, MDA-MB-231 cells, 24-h treatment, ID PH_hs_0045501): 4.039
- log2 (Ratio) SLC6A6 (mRNA, MDA-MB-231 cells, 24-h treatment, ID PH_hs_0045838): 2.838
- log2 (Ratio) RN7SK (mRNA, MDA-MB-231 cells, 24-h treatment, ID PH_hs_0046245): 4.763
- log2 (Ratio) MARCKS (mRNA, MDA-MB-231 cells, 24-h treatment, ID PH_hs_0047352): −3.043
- log2 (Ratio) PDP1 (mRNA, MDA-MB-231 cells, 24-h treatment, ID PH_hs_0047571): −2.547
- log2 (Ratio) ARF6 (mRNA, MDA-MB-231 cells, 24-h treatment, ID PH_hs_0047697): −2.688
- log2 (Ratio) PHLDA1 (mRNA, MDA-MB-231 cells, 24-h treatment, ID PH_hs_0047965): −2.959
- log2 (Ratio) MYCT1 (mRNA, MDA-MB-231 cells, 24-h treatment, ID PH_hs_0048553): 3.866
- log2 (Ratio) FKBP4 (mRNA, MDA-MB-231 cells, 24-h treatment, ID PH_hs_0048881): 2.809
- log2 (Ratio) NRP1 (mRNA, MDA-MB-231 cells, 24-h treatment, ID PH_hs_0048993): −2.677
- log2 (Ratio) GPR39 (mRNA, MDA-MB-231 cells, 24-h treatment, ID PH_hs_0049449): −2.73
- log2 (Ratio) HSPA6 (mRNA, MDA-MB-231 cells, 24-h treatment, ID PH_hs_0049600): 6.644
- log2 (Ratio) ZNF121 (mRNA, MDA-MB-231 cells, 24-h treatment, ID PH_hs_0060053): 2.575
- log2 (Ratio) TRIB3 (mRNA, MDA-MB-231 cells, 24-h treatment, ID PH_hs_0060828): 2.735
- log2 (Ratio) ZBTB21 (mRNA, MDA-MB-231 cells, 24-h treatment, ID PH_hs_0061012): 2.731
- log2 (Ratio) AKR1C1|LOC101060798 (mRNA, MDA-MB-231 cells, 24-h treatment, ID PH_hs_0062199): 3.357
- log2 (Ratio) CDKN1A (mRNA, MDA-MB-231 cells, 24-h treatment, ID PH_hs_p061784): 2.967
- genes expressed at least by 2.5 folds compared with untreated control (total): 97 genes
